# Assays:
# Format in all cases: in vivo
# [1] = system: Tobacco Budworm [Heliothis virescens (Fabricius)] eggs; test: Tobacco budworm egg test; conditions: 2-day old eggs, percent in solution
# Procedure, shortened: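 Paper towel patches bearing 2-day old eggs were dipped in acetone solutions of compound, then set in petri dishes over larval rearing medium at 78° F. Mortality was scored once all control eggs had hatched and larvae were feeding. LC50, from dosage-mortality curves, is given as percent compound in solution.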
# [2] = system: Housefly [Musca domestica]; test: Housefly insecticidal test; conditions: μg per 25 female flies; mortality after 48 hours
# Procedure, shortened: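 Dose range started at 100 μg per 25 female flies and went downward. Insects (1-2 days old) contacted a dried acetone/peanut-oil deposit in dishes; LC50 values come from dosage-mortality curves at 48 h.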
# [3] = system: Cabbage Looper [Trichoplusia ni (Hubner)]; test: Cabbage looper insecticidal test; conditions: second-instar larvae, percent in solution; 3-5 days
# Procedure, shortened: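 Compounds in 50-50 acetone-water were applied by dipping squash cotyledons (about 1×1.5 in) for 2-3 s; dried leaves went into petri dishes on moist filter paper with 5 second-instar larvae under high humidity. Mortality was scored after 3-5 days; LC50 from dosage-mortality curves, as percent compound in solution.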
# [4] = system: Beet Armyworm (Spodoptera exigua); test: Beet armyworm insecticidal test; conditions: second-instar larvae, percent in solution; five days
# Procedure, shortened: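 Sugar beet leaves dipped 2–3 s in compound diluted in 50:50 acetone-water, dried, then infested with five second-instar larvae in humid petri dishes. Mortality scored at 5 days; concentrations from 0.1% downward. LC50 from dosage-mortality curves, expressed as percent compound in solution.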
# [5] = system: Rice water weevil [Lissorhoptrus oryzophilus (Kuschel)]; test: Rice water weevil insecticidal test; conditions: topical, μg per weevil; 48 hours
# Experimental: The compounds in Tables 1 and 2 above were tested for insecticidal activity using the following testing procedures. LC50 values, based on the results of these tests and calculated according to dosage-mortality curves, are expressed in Table 3.
# Rice water weevil [Lissorhoptrus oryzophilus (Kuschel)]:
# Test compounds were diluted in acetone. Droplets (1 μl) of test solutions were applied to the ventral abdomens of ten female adult weevils. The treated weevils were placed in containers with wet cotton balls and rice foliage. The containers were covered and kept at a temperature of about 25° C. Mortality was recorded after 48 hours. Test concentrations ranged from […] or 2.5 μg per weevil down to that at which 50% mortality occurred. The LC50 values are expressed below in Table 3 under the heading "RWW" in terms of μg of test compound per weevil.
# [6] = system: Aster Leafhopper [Macrosteles fascifrens (Stal)]; test: Aster leafhopper insecticidal test; conditions: adults/nymphs, percent in solution; 48 hours
# Procedure, shortened: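 Three ~10 cm oat seedlings per cup were dipped 2-3 seconds in 50-50 acetone-water compound solutions, dried, and caged with ten adult/nymph leafhoppers. Mortality was counted after 48 hours at concentrations from 0.05% downward. LC50, as percent compound in solution, came from dosage-mortality curves.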
# [7] = system: Maize weevil [Sitophilus Zeamais (Motschulsky)]; test: Maize weevil insecticidal test; conditions: adult weevils, percent in solution; 48 hours
# Procedure, shortened: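 LC50, in percent of compound in solution, was derived from dosage-mortality curves after 48 h at about 25 °C. Ten adult weevils per container fed on four corn seeds briefly immersed in acetone:water (50:50) solutions of up to 0.01% and dried.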
# [8] = system: Tobacco Budworm [Heliothis virescens (Fabricius)] larvae; test: Tobacco budworm contact test; conditions: second-instar larvae, percent in solution, 5 days
# Procedure, shortened: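 Cotton cotyledons dipped 2–3 s in compound in 50-50 acetone-water, dried, then infested with 5 second-instar larvae and held 5 days at high humidity. Mortality scored; LC50 from dosage-mortality curves, expressed as percent compound in solution, concentrations from 0.1% downward.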
Structure (SMILES),"LC50, TBW, E (TBW-E) [1] [%]","LC50, HF [2] [µg]","LC50, CL [3] [%]","LC50, BAW [4] [%]","LC50, RWW [5] [µg]","LC50, LH [6] [%]","LC50, MW [7] [%]","LC50, TBW, C (TBW-C) [8] [%]"
FC(F)(F)c1cccc(N=C(OCc2cccc(Oc3ccccc3)c2)C(Cl)Cl)c1 [Compound 66],0.06,9.7,< 0.0025,0.0065,> 2.5,0.001,–,–
CC(C)C(=Nc1ccc(C(F)(F)F)cc1)OCc1cccc(Oc2ccccc2)c1 [Compound 68],0.009,37,0.006,–,0.15,0.0001,> 0.01,–
CCC(=Nc1ccc(F)c(Cl)c1)OCc1cccc(Oc2ccccc2)c1 [Compound 85],> 0.1,7,0.004,–,> 2.5,0.003,> 0.01,–
CC(C)C(=Nc1ccc(F)c(Cl)c1)OCc1cccc(Oc2cccc(F)c2)c1 [Compound 125],0.025,12,0.0007,–,> 2.5,> 0.05,> 0.01,–
CC(C)C(=Nc1ccc(F)c(Cl)c1)OCc1cccc(Oc2ccc(F)cc2F)c1 [Compound 191],0.04,29,0.00023,–,> 2.5,> 0.05,0.004,–
CC(C)C(=Nc1c(F)c(F)c(F)c(F)c1F)OCc1cccc(Oc2ccc(F)cc2)c1 [Compound 198],> 0.1,52,0.0005,–,> 2.5,0.05,0.003,–
CC(C)C(=Nc1ccc(Cl)c(Cl)c1)OCc1ccc(F)c(Oc2ccc(F)cc2)c1 [Compound 289],0.006,10,0.00007,–,0.082,0.0003,> 0.01,–
CC(C)C(=Nc1ccc(F)c(F)c1)OCc1ccc(F)c(Oc2ccc(Cl)cc2)c1 [Compound 295],0.01,7.8,0.00004,–,> 2.5,0.0001,0.0053,0.0005
CC(C)C(=Nc1ccc(Cl)c(Cl)c1)OCc1ccc(F)c(Oc2ccc(Cl)cc2)c1 [Compound 296],0.025,38,0.00025,–,0.14,0.0003,–,0.00045
CC(C)C(=Nc1ccc(F)c(Br)c1)OCc1ccc(F)c(Oc2ccc(Cl)cc2)c1 [Compound 298],0.015,13,0.0001,–,> 2.5,0.0001,0.008,0.0008
CC(C)C(=Nc1ccc(F)c(C(F)(F)F)c1)OCc1ccc(F)c(Oc2ccccc2)c1 [Compound 300],0.024,14,0.0003,–,0.075,0.00002,0.01,0.001
CC(C)C(=Nc1ccc(F)c(Cl)c1F)OCc1ccc(F)c(Oc2ccc(F)cc2)c1 [Compound 330],0.037,5,0.00012,–,0.06,< 0.05,0.001,0.00035
CC(C)C(=Nc1ccc(OC(F)(F)F)cc1)OCc1ccc(F)c(Oc2ccccc2)c1 [Compound 338],0.01,26,0.000065,–,0.044,–,0.0053,0.00037
CC(C)C(=Nc1cccc(F)c1)OCc1ccc(F)c(Oc2ccc(Cl)cc2)c1 [Compound 375],0.04,7.9,> 0.1,–,> 2.5,–,> 0.01,–
CC(C)C(=Nc1ccc(Cl)c(Cl)c1)OCc1ccc(F)c(Oc2ccccc2)c1 [Compound 376],0.02,17,0.00037,–,0.1,–,0.0061,–
CC(C)C(=Nc1ccc(C(F)(F)F)c(Br)c1)OCc1ccc(F)c(Oc2ccc(Cl)cc2)c1 [Compound 377],> 0.1,< 100,0.00062,–,> 2.5,–,> 0.01,–
CC(C)C(=Nc1ccc(Br)cc1)OCc1ccc(F)c(Oc2ccc(Cl)cc2)c1 [Compound 378],0.02,< 100,0.00034,–,> 2.5,–,> 0.01,–
CC(C)C(=Nc1ccc(Br)c(Cl)c1)OCc1cccc(Oc2ccc(Cl)cc2)c1 [Compound 380],> 0.1,> 100,> 0.1,–,> 2.5,–,> 0.01,–
CC(C)C(=Nc1ccc(Br)c(Cl)c1)OCc1ccc(F)c(Oc2ccc(Cl)cc2)c1 [Compound 381],0.018,< 100,0.00092,–,> 2.5,–,> 0.01,–
CC(C)C(=Nc1ccc(Br)c(Cl)c1)OCc1ccc(F)c(Oc2ccc(F)cc2)c1 [Compound 382],0.027,< 100,0.00029,–,> 2.5,–,> 0.01,–
CC(C)C(=Nc1cccc(Br)c1)OCc1ccc(F)c(Oc2ccccc2)c1 [Compound 387],0.05,< 100,0.0012,–,> 2.5,–,> 0.01,–
CC(C)C(=Nc1ccc(Cl)cc1)OCc1ccc(F)c(Oc2ccc(Cl)cc2)c1 [Compound 391],0.035,< 100,0.00029,–,> 2.5,–,> 0.01,–
C=C(C)C(=Nc1ccc(C(F)(F)F)cc1)OCc1ccc(F)c(Oc2ccccc2)c1 [Compound 431],0.025,9.8,0.00017,–,0.084,–,0.0037,–
CC(C)C(=Nc1ccc(C(F)(F)F)c(Br)c1)OCc1ccc(F)c(Oc2ccc(Cl)cc2)c1 [Compound 433],0.02,< 100,0.00017,–,0.078,–,0.005,–
CC(C)C(=Nc1ccc(F)c(Cl)c1F)OCc1ccc(F)c(Oc2ccccc2)c1 [Compound 451],> 0.1,3.6,0.0001,–,0.065,0.0002,0.0051,0.00025
CC(C)C(=Nc1ccc(Cl)c(OCC(F)(F)F)c1)OCc1ccc(F)c(Oc2ccc(Cl)cc2)c1 [Compound 452],< 0.1,> 100,0.0017,–,0.1,–,> 0.01,–
CC(C)C(=Nc1ccc(F)c(Cl)c1)OCc1cccc(Oc2ccc(F)cc2)n1 [Compound 461],0.01,6,0.00008,0.0035,> 2.5,–,0.0075,–

# Source: patent US5070210A, “Novel ketenimines as intermediates for insecticides” (ICI Americas Inc., priority 1990, dated 1991)
